For one assay, the system named is mast cells. Description: Early and delayed mast cell responses induced by FcεRI aggregation. Type of assay: cell-based. As to the method:
Binding of Btk and Vav with SLP-76 is critical for regulating PLC-γ activity on the membrane, calcium mobilisation and granule exocytosis^27, 28.
(§1) • 1) Chemical products and antibodies. A chemical bank of 3000 molecules (a varied subset) was acquired from ChemBridge, Inc. (San Diego, Calif.). Stocks of solutions of small molecules were prepared at a rate of 10 mM in DMSO (dimethylsulphoxide), except for C-13 (methyl 2-{5-[(3-benzyl-4-oxo-2-thioxo-1,3-thiazolidin-5-ylidene)methyl]-2-furyl}benzoate, ChemBridge ID No. 6197026) prepared in DMF (dimethylformamide). Unless specified otherwise, all the reagents were supplied by Sigma. Dinitrophenyl (DNP) hapten was acquired from Calbiochem. […] The binding of G4G11 with Syk was assessed by adding the 9E10 monoclonal antibody conjugated with HRP detecting the amino acid sequence EQKLISEEDLN of human c-myc protein located at the C-terminal end of the scFv fragment. To generate Syk mutants, targeted mutagenesis was used on GST:Syk 6-242 protein and the binding of G4G11 with the mutants was assessed in the presence of 5 μM of C-13. • 3) Cells, culture conditions and functional tests. […] The level of β-hexosaminidase released was measured 10 min later and the TNF-α titration was performed by means of a cytotoxicity test on L929 cells as described previously^10, 3 hours after stimulation. […]

Another assay relates to LAT. Put plainly: Phosphorylation of LAT (phospho-specific antibodies). The format is cell-based, rat. As to conditions: dose-dependent, RBL-2H3 cells.
A further assay concerns ERK1/2. Put plainly: MAP kinase activation: ERK1/2 phosphorylation level. The format is cell-based. The settings on record: high C-13 concentration. On the procedure: (§2) The association of SLP-76 with Vav and/or Nck plays a role in optimal MAP kinase activation in mast cells^27.
as §1, with “Calbiochem. Sepharose GammaBind G and all the secondary antibodies were supplied by GE Health Amersham Biosciences.” for “Calbiochem.”

Another assay deals with p38 and JNK. Put plainly: MAP kinase activation: p38 and JNK phosphorylation levels. As to conditions: high C-13 concentration. The format is cell-based. On the procedure: as §2
as §1, with “Calbiochem. Sepharose GammaBind G and all the secondary antibodies were supplied by GE Health Amersham Biosciences.” for “Calbiochem.”

The structures appear in SMILES notation. Where two headings read alike, the source gives them in different places.

Broadly, the IC50 is the concentration needed to halve the response being measured. Regarding `COC(=O)c1ccccc1-c1ccc(/C=C2/SC(=S)N(Cc3ccccc3)C2=O)o1` [Molecule C-13, methyl 2-{5-[(3-benzyl-4-oxo-2-thioxo-1,3-thiazolidin-5-ylidene)methyl]-2-furyl}benzoate], the IC50 is approximately 2000 nM with mast cells (read-out: estimated IC50, delayed mast cell response (TNF-α secretion)) and approximately 2000 nM in the assay on mast cells (read-out: estimated IC50, early mast cell response (β-hexosaminidase release)). Moreover, in the assay on LAT, the “phosphorylation of LAT” value is listed as “increases”. The “phosphorylation level ERK1/2” value with ERK1/2 was “reduces”. Moreover, the “phosphorylation levels of p38 and JNK” value in the assay with p38 and JNK is recorded as “remain normal”.

These data come from patent US9504676B2, “Molecules inhibiting a metabolic pathway involving the Syk protein tyrosine kinase and method for identifying said molecules” (CENTRE NATIONAL DE LA RECHERCHE SCIENTIFIQUE, priority 2008, dated 2016).
